Data published in PubChem BioAssay (NCI).
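Values below derive from 48-hour exposures of cells grown in 96-well plates, with endpoints linearly interpolated between the two concentrations bracketing the appropriate inhibition level. Definition used: TGI = concentration required for complete inhibition of growth.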

How the values were obtained:
Assay in all cases: growth of human tumour cells (NCI), 48 h
KM12 colon = test system: KM12 colon
M14 melanoma = test system: M14 melanoma
MALME-3M melanoma = test system: MALME-3M melanoma
MOLT-4 leukemia = test system: MOLT-4 leukemia
NCI/ADR-RES ovarian = test system: NCI/ADR-RES ovarian
OVCAR-3 ovarian = test system: OVCAR-3 ovarian
OVCAR-4 ovarian = test system: OVCAR-4 ovarian
PC-3 prostate = test system: PC-3 prostate
TK-10 renal = test system: TK-10 renal
UO-31 renal = test system: UO-31 renal

Compound	TGI (KM12 colon) [µM]	TGI (M14 melanoma) [µM]	TGI (MALME-3M melanoma) [µM]	TGI (MOLT-4 leukemia) [µM]	TGI (NCI/ADR-RES ovarian) [µM]	TGI (OVCAR-3 ovarian) [µM]	TGI (OVCAR-4 ovarian) [µM]	TGI (PC-3 prostate) [µM]	TGI (TK-10 renal) [µM]	TGI (UO-31 renal) [µM]
O=C(N/N=C/c1ccccc1)c1c(F)c(F)c(F)c(F)c1F	> 100	> 100	> 100	> 100	> 100	> 100	> 100	> 100	> 100	> 100
CC(=O)OC12c3ccccc3C(c3ccccc31)C1C(=O)N(N=C(C)C)C(=O)C12 (stereo not given)	> 100	> 100	> 100	> 100	> 100	> 100	> 100	> 100	> 100	> 100
COc1ccc(S(=O)(=O)NC(CCC(=O)NC(N)=O)C(=O)NC(N)=O)cc1 (stereo not given)	> 100	> 100	> 100	> 100	> 100	> 100	> 100	> 100	> 100	> 100
COCc1cc2c(s1)C(=O)C1=C(C2=O)C2(C=C(Br)C(=O)C(Br)=C2)CCN1	17.9	4.32	2.23	8.29	9.41	11.8	3.57	12.1	32.4	25.4
CC(=O)c1c(-c2ccc(Cl)cc2)c(C#N)c(=S)n(C2OC(CO)C(O)C(O)C2O)c1C (stereo not given)	> 100	> 100	> 100	52.8	> 100	> 100	> 100	99.3	> 100	6.92
OCCN1CCN(c2nc(N3CCCC3)c3nc(Cl)c(NCc4ccccc4)nc3n2)CC1	15.8	7.24	11.7	15.3	26.7	23.5	25.4	22.8	19.2	11.5
CC(=O)CCC1(C(=O)OCC(C)C)CCCC1=O (stereo not given)	> 100	> 100	> 100	> 100	> 100	> 100	> 100	> 100	> 100	> 100
O=C(O)[C@H]1NC[C@H]2C(Br)=NO[C@@H]12	> 100	> 100	> 100	> 100	> 100	> 100	> 100	> 100	> 100	> 100
